One may read the IC50 as the point on the concentration scale where inhibition reaches its midpoint.

In test [1] the target is T1, PDE10A catalytic domain (residues 446-789) (Homo sapiens, UniProt Q9Y233).
T1 construct: coding the catalytic domain (residues 446-789); inferred from the pET15b vector and the Ni-NTA purification) (N); made in house; host or cells: E. coli BL21 (Codonplus, Stratagene)
As to the kind of experiment: PDE10A enzymatic assay (3H-cGMP hydrolysis, scintillation counting). Type of test: biochemical. Particulars: for inhibition at 1 µM: compound concentration 1 μM, read-out: PDE10 inhibitory assay Inhibition ratio (1 μM) (%); for IC50: mean of three independent determinations, 3H-cGMP substrate, read-out: PDE10 inhibitory assay IC50. The protocol: The recombinant pET15b-PDE10A plasmid coding the catalytic domain (residues 446-789) was subcloned and purified according to the following protocols previously reported (Li et al., [2015]). Then it was transferred into E. coli strain BL21 (Codonplus, Stratagene). The E. coli cells carrying the recombinant plasmid were cultured in an 2XYT medium (containing 100 μg/mL ampicillin and 30 μg/mL chloramphenicol) at 37°C until OD600 = 0.6-0.8. And then, 1 mM isopropyl-β-D-thiogalactopyranoside was added in to induce the PDE10A protein expression at 20°C for 24 h. The nickel nitriloacetic acid (Ni-NTA) column (Qiagen) was used for purifying PDE10A proteins. The concentration of the PDE10 fractions was estimated based on the absorbance at 280 nm (calculated by the ProtParam software).
The enzymatic activities of the catalytic domains of PDE10A were performed using ^3H-cGMP solution in the assay buffer of 50 mM Tris pH = 7.5, 4 mM MgCl2, 1 mM DTT, and ^3H-cGMP giving 20,000–30,000 cpm after the reaction terminated per assay. To a solution (DMSO) of test compounds in different concentration, the PDE10A enzyme in the assay buffer was added to perform the enzymatic reaction and then incubated at room temperature for 15 min. The assay was then terminated by addition of 0.2 M ZnSO4, Subsequently, 0.2 N Ba(OH)2 was added to precipitate the reaction product ^3H-GMP, whereas unreacted ^3H-cGMP remained in the supernatant. The radioactivity in the supernatant was measured in 2.5 mL Ultima Gold liquid scintillation cocktails (PerkinElmer) by a liquid scintillation counter (PerkinElmer 2910). The IC50 values of test compounds at PDE10A enzymes were measured by repeating of three independent experiments using the nonlinear regression method.

Test [2] can be described thus: Antioxidant assay: oxygen radical absorbance capacity fluorescein (ORAC-FL) method. The following applies: AAPH 12 mM, fluorescein 150 nM, pH 7.4, 37°C, samples 1–10 μM. The protocol:
The modified oxygen radical absorbance capacity fluorescein (ORAC-FL) method was performed to determine the antioxidant activity (Ou et al., [2001]; Dávalos et al., [2004]). The reaction was diluted with 75 mM phosphate buffer (pH = 7.4), and the volume of the final reaction mixture was 200 μL in well. Test compound (20 μL) and fluorescein (120 μL, 150 nM final concentration) were placed in the well of a black 96 well optical bottom plates. After the mixture was incubated at 37°C for 15 min, AAPH solution (60 μL, 12 mM final concentration) was added rapidly. The plate was placed in a Spectrafluor Plus plate reader (Tecan, Crailsheim, Germany) and the fluorescence was recorded every minute for 4 h with an excitation wavelength at 485 nm and emission wavelength at 535 nm. Trolox was used as standard (1–8 μM, final concentration). A blank (fluorescein + AAPH) with phosphate buffer instead of test compounds and trolox calibration were performed for the assays of antioxidants. The samples were measured at different concentration (1–10 μM). All the reaction mixtures were prepared fourfold, and at least three independent assays were performed for each sample. Fluorescence in time course was normalized on basis of the blank (without antioxidants). The ORAC-FL values were calculated as the reported method. Final ORAC-FL values were expressed in μM of trolox equivalents. Ferulic acid was used as the positive reference compound, showing an ORAC-FL value of 1.6 trolox equivalents.

In another test the test system is PDE10A. The arrangement: method as in Siuciak et al., 2006a. Particulars: ref Siuciak et al., 2006a; read-out: IC50 toward PDE10A; cited from earlier work.

Each structure is given as a SMILES string. Several values for one entry are separate records, joined by “and”; a condition that tells them apart may be missing. Identical values can stand only once.

T1 sequence (Q9Y233 712-1055): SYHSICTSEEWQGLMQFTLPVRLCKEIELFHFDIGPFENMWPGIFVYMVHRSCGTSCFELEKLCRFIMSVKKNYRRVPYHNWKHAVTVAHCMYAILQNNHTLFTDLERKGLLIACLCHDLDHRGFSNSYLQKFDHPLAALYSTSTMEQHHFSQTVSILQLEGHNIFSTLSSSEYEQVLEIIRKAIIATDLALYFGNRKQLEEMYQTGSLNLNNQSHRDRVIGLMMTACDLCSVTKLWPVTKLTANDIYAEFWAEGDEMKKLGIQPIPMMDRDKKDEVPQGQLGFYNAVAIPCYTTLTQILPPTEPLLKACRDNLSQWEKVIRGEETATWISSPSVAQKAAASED

`COc1cc2ncnc(NCCc3c[nH]c4ccc(O)cc34)c2cc1OC` [Compound 11e, 3-(2-((6,7-dimethoxyquinazolin-4-yl)amino)ethyl)-1H-indol-5-ol]: in test [1], the inhibition at 1 µM came to 76%; the IC50 was < 1000 nM and 640 nM. The “ORAC (oxygen radical absorbance capacity)” value (from here on “ORAC”) in test [2] was 2.3 trolox equivalents and 2.3 ± 0.2 trolox equivalents.

For `COc1cc2ncnc(NCCc3c[nH]c4ccccc34)c2cc1OC` [Compound 11a, N-(2-(1H-indol-3-yl)ethyl)-6,7-dimethoxyquinazolin-4-amine], in test [1], the inhibition at 1 µM is 72%; the IC50 was < 1000 nM and 760 nM. In addition, the “ORAC” value in test [2] was found to be 1.3 ± 0.1 trolox equivalents.

For `COc1cc2ncnc(NC(C)Cc3c[nH]c4ccccc34)c2cc1OC` (stereo not drawn) [Compound 11b, N-(1-(1H-indol-3-yl)propan-2-yl)-6,7-dimethoxyquinazolin-4-amine], in test [1], the inhibition at 1 µM was 66%. Besides, the “ORAC” value in test [2] was 1.5 ± 0.1 trolox equivalents.

Turning to `COc1cc2ncnc(NCCc3nc4ccccc4[nH]3)c2cc1OC` [Compound 13, N-(2-(1H-benzo[d]imidazol-2-yl)ethyl)-6,7-dimethoxyquinazolin-4-amine], in test [1], the inhibition at 1 µM stood at 80%; the half-maximal inhibitory concentration (IC50) is < 1000 nM and 680 nM. In addition, in test [2], the “ORAC” value is 0.15 ± 0.02 trolox equivalents.

For `COc1cc2ncnc(NCCc3c[nH]c4ccc(Br)cc34)c2cc1OC` [Compound 11h, N-(2-(5-bromo-1H-indol-3-yl)ethyl)-6,7-dimethoxyquinazolin-4-amine], the inhibition at 1 µM in test [1] worked out at 66%. Moreover, the “ORAC” value in test [2] is 1.9 ± 0.1 trolox equivalents.

Take `COc1cc2ncnc(NCCc3c[nH]c4cc(F)ccc34)c2cc1OC` [Compound 11f, N-(2-(6-fluoro-1H-indol-3-yl)ethyl)-6,7-dimethoxyquinazolin-4-amine]: in test [1], the inhibition at 1 µM turned out to be 78%; the 50% inhibitory concentration (IC50) is < 1000 nM and 330 nM. For the same molecule, the “ORAC” value in test [2] is 1.0 trolox equivalents and 1.0 ± 0.1 trolox equivalents.

With `COc1cc2ncnc(N3CCOCC3)c2cc1OC(=O)CCCCC1CCSS1` (stereo not drawn) [Compound 8c, 7-methoxy-4-morpholinoquinazolin-6-yl 5-(1,2-dithiolan-3-yl)pentanoate], in test [1], the inhibition at 1 µM worked out at 24%. Also, the “ORAC” value in test [2] is listed as 0.3 ± 0.01 trolox equivalents.

Consider `COc1ccc(Cc2nccc3cc(OC)c(OC)cc23)cc1OC` [Papaverine], for which, in the test on PDE10A, the IC50 was 10 to 300 nM.

Turning to `COc1cc2ncnc(NCCc3c[nH]c4ccc(C)cc34)c2cc1OC` [Compound 11g, 6,7-dimethoxy-N-(2-(5-methyl-1H-indol-3-Yl)ethyl)quinazolin-4-amine], the inhibition at 1 µM in test [1] was determined as 64%. Moreover, the “ORAC” value in test [2] was found to be 1.0 ± 0.2 trolox equivalents.

On to `COc1cc2ncnc(NC(C)CCc3c[nH]c4ccccc34)c2cc1OC` (stereo not drawn) [Compound 12], for which, in test [1], the inhibition at 1 µM came out at 84%; the IC50 is < 1000 nM and 240 nM. The “ORAC” value in test [2] was 1.3 trolox equivalents and 1.3 ± 0.2 trolox equivalents.

Turning to `COc1cc2ncnc(N3CCOCC3)c2cc1OC(=O)C=Cc1ccc(O)cc1` [Compound 8b, 7-methoxy-4-morpholinoquinazolin-6-yl 3-(4-hydroxyphenyl)acrylate], the inhibition at 1 µM in test [1] came to 26%. For the same molecule, the “ORAC” value in test [2] is 3.3 trolox equivalents and 3.3 ± 0.1 trolox equivalents.

Consider `COc1ccc2[nH]cc(CCNc3ncnc4cc(OC)c(OC)cc34)c2c1` [Compound 11c, 6,7-dimethoxy-N-(2-(5-methoxy-1H-indol-3-yl)ethyl)quinazolin-4-amine], for which, in test [1], the inhibition at 1 µM stood at 49%. For the same molecule, the “ORAC” value in test [2] is 2.2 trolox equivalents and 2.2 ± 0.03 trolox equivalents.

Take `COc1cc(/C=C/C(=O)O)ccc1O` [Ferulic acid, reference compound]: the “ORAC” value in test [2] was 1.6 trolox equivalents and 1.6 ± 0.1 trolox equivalents.

As for `COc1ccc2[nH]cc(CC(C)Nc3ncnc4cc(OC)c(OC)cc34)c2c1` (stereo not drawn) [Compound 11d, 6,7-dimethoxy-N-(1-(5-methoxy-1H-indol-3-yl)propan-2-yl)quinazolin-4-amine], the inhibition at 1 µM in test [1] came to 56%. The “ORAC” value in test [2] is 1.3 trolox equivalents and 1.3 ± 0.1 trolox equivalents.

On to `COc1cc2ncnc(N3CCOCC3)c2cc1OCCc1c[nH]c2ccccc12` [Compound 8a, 4-(6-(2-(1H-indol-3-yl)ethoxy)-7-methoxyquinazolin-4-yl) morpholine], for which the inhibition at 1 µM in test [1] worked out at 57%. In test [2], the “ORAC” value is 1.0 trolox equivalents and 1.0 ± 0.1 trolox equivalents.

These data come from article PMC5962708, “Structure-Based Design, Synthesis, Biological Evaluation, and Molecular Docking of Novel PDE10 Inhibitors With Antioxidant Activities” (Frontiers in Chemistry, 2018).
